Experimental findings from patent publication US20250206755A1, “ANTIMICROBIAL AGENTS” (RUTGERS, THE STATE UNIVERSITY OF NEW JERSEY, priority 2012, published 2025) are described below.

For assay [1], the system named is S. aureus ATCC 19636 (MSSA). The assay is described as follows: In vivo efficacy, mouse peritonitis model of systemic infection (Test D), MSSA. The note with it: mice. Here is the method: Antistaphylococcal efficacy in vivo was assessed in a mouse peritonitis model of systemic infection with S. aureus ATCC 19636 (MSSA) or ATCC 43300 (MRSA). These studies were conducted in full compliance with the standards established by the US National Research Council's Guide for the Care and Use of Laboratory Animals, and were approved by the Institutional Animal Care and Use Committee (IACUC) of Rutgers University. Groups of 4-6 female Swiss-Webster mice with an average weight of 25 g were infected intraperitoneally with a lethal inoculum of each bacterial strain in saline. The inoculum of S. aureus ATCC 43300 contained 1.0×10^8 CFUs/mL of bacteria, while the inoculum of S. aureus ATCC 19636 contained 0.8×10^7 CFUs/mL of bacteria. All the inocula also contained porcine mucin (Sigma-Aldrich, Co.) at a (w/v) percentage of 1.5% (in ATCC 19636 inocula) or 5% (in the ATCC 43300 inoculum). The differing compositions of the inocula of these S. aureus strains were selected based on the virulence of each strain, with MSSA ATCC 19636 being the more virulent strain and MRSA ATCC 43300 being the less virulent strain.
All compound and vehicle intravenous (i.v.) administrations were by tail vein injection, with 17 being formulated at 2.0 mg/mL and 44 being formulated at both 2.0 and 3.0 mg/ml in 10 mM citrate (pH 2.6).
In the MSSA ATCC 19636 experiments, the first dose of compound was administered 10 minutes after infection, with subsequent doses being administered at 12-minute intervals thereafter unless otherwise noted. In the MRSA studies, the first dose of compound was administered one hour after infection, with subsequent doses being administered at 12-minute intervals thereafter unless otherwise indicated.
The body temperatures of all mice were monitored for a period of 5 days after infection. Body temperatures were recorded at the Xiphoid process using a noninvasive infrared thermometer (Braintree Scientific, Inc., Braintree, MA). Infected mice with body temperatures ≤28.9° C. were viewed as being unable to recover from the infection and were euthanized.

Assay [2] has as its system S. aureus ATCC 43300 (MRSA). The assay is described as follows: In vivo efficacy, mouse peritonitis model of systemic infection (Test D), MRSA. The settings on record: mice, p.o., total dose 4.8 mg/mouse.
Assay [3] concerns MSSA. The assay is described as follows: Antibacterial assay, broth microdilution MIC (Test A). The note with it: Staphylococcus aureus, MIC values may be lower as solubility and aggregate formation may reduce observed activity. In kind it is cell-based. Here is the method:
(§1) Antibacterial activity can be determined as per Clinical and Laboratory Standards Institute (CLSI) guidelines using a broth microdilution assay in which log-phase bacteria are grown at 37° C. in appropriate medium containing two-fold serial dilutions of a compound to yield final concentrations ranging from 256 to 0.06 μg/mL. For determination of minimal inhibitory concentration (MIC) values, bacterial growth is monitored after 24 to 48 hours by measuring optical density at 600 nm.
A general note: Dilution methods test growth across graded concentrations, often in twofold steps.

Assay [4] has as its system MRSA. The description is as above. It counts as cell-based. The settings on record: Staphylococcus aureus, MIC values may be lower as solubility and aggregate formation may reduce observed activity. Here is the method: as §1
The mark [5] stands for this setting: i.v., 1x, total dose 0.6 mg/mouse, first dose immediately prior to infection.
[6] abbreviates: i.v., 2x, total dose 1.2 mg/mouse, first dose immediately prior to infection, subsequent doses 15 minutes following.
Setting [7] is: p.o., 1x, total dose 0.8 mg/mouse, first dose 5 minutes prior to infection.
[8] abbreviates: p.o., 2x, total dose 1.6 mg/mouse, first dose 5 minutes prior to infection, subsequent doses 15 minutes apart.
Setting [9] is: p.o., 4x, total dose 3.2 mg/mouse, first dose 5 minutes prior to infection, subsequent doses 15 minutes apart.
Setting [10] is: 6x (no footnote: first dose one hour after infection, 12-minute intervals).
Where [11] appears, read: 6x, first dose 5 minutes prior to infection, subsequent doses 12 minutes apart.
[12] abbreviates: 6x, first dose 10 minutes post-infection, subsequent doses 12 minutes apart.
Where [13] appears, read: i.v., 2x, total dose 1.8 mg/mouse.
[14] abbreviates: p.o., 1x, total dose 0.8 mg/mouse.
Where [15] appears, read: p.o., 2x, total dose 1.6 mg/mouse.
Where [16] appears, read: p.o., 3x, total dose 2.4 mg/mouse.
Where [17] appears, read: p.o., 4x, total dose 3.2 mg/mouse.

Values after ≈ are worked out from the molar mass of the structure shown.

For the molecule `CN1CCC(C(=O)NC(=O)c2c(F)ccc(OCc3nc4cc(Cl)cnc4s3)c2F)CC1` [Example 17], the “Survival (%) 24 Hrs” value in assay [1] (setting [5]) was 0%; in assay [1] (setting [6]), 0%; in assay [1] (setting [7]), 0%; in assay [1] (setting [8]), 0%; in assay [1] (setting [9]), 100%; in assay [2] (setting [11]) it was 100%. Further, the “Survival (%) 24 Hrs” value in assay [2] (setting [12]) is 100%. In addition, the “Survival (%) 48 Hrs” value in assay [1] (setting [5]) is 0%; in assay [1] (setting [6]), 0%; in assay [1] (setting [7]), 0%; in assay [1] (setting [8]) it was 0%; in assay [1] (setting [9]), 100%; in assay [2] (setting [10]), 50%. Moreover, the “Survival (%) 48 Hrs” value in assay [2] (setting [11]) and in assay [2] (setting [12]) was 100% in each case. Moreover, the “Survival (%) 72 Hrs” value is recorded as 0% in assay [1] (setting [5]); 0% in assay [1] (setting [6]); 0% in assay [1] (setting [7]); 0% in assay [1] (setting [8]); 100% in assay [1] (setting [9]); 50% in assay [2] (setting [10]). Besides, the “Survival (%) 72 Hrs” value in assay [2] (setting [11]) and in assay [2] (setting [12]) was 100% each time.

On to `CN1CCC(C(=O)NC(=O)c2c(F)ccc(OCc3nc4cc(C(F)(F)F)cnc4s3)c2F)CC1` [Example 44], for which the “Survival (%) 24 Hrs” value in assay [1] (setting [13]) was 100%; in assay [1] (setting [14]), 50%; in assay [1] (setting [15]), 100%; in assay [1] (setting [16]) it was 100%; in assay [1] (setting [17]), 100%. The “Survival (%) 48 Hrs” value in assay [1] (setting [13]) turned out to be 100%; in assay [1] (setting [14]), 50%; in assay [1] (setting [15]) it was 100%; in assay [1] (setting [16]), 100%; in assay [1] (setting [17]), 100%. In addition, the “Survival (%) 72 Hrs” value in assay [1] (setting [13]) is 100%; in assay [1] (setting [14]), 50%; in assay [1] (setting [15]) it was 100%; in assay [1] (setting [16]), 100%; in assay [1] (setting [17]), 100%.

In the case of `CCC(=O)NC(=O)c1c(F)ccc(OCc2nc3cc(Cl)ccc3s2)c1F` [Example 5], the MIC in assay [3] and in assay [4] was 2 µg/mL (≈ 4.87 µM) in each case.
